Measurements published in US6656957B1, “Pyridine derivatives” (Novartis AG, priority 1998, dated 2003).
Read-outs that look alike come from different tables or passages of the source. Values belong to the compound of their own block, whether it stands above or below them.

What was measured:
[1] = test system: electroshock induced convulsion; experiment: electroshock induced convulsion model; type: in vivo; conditions: ip, read-out: anticonvulsive activity ED50
Description: At doses of about 10 to 100 mg/kg i.p. or p.o. with pretreatment times of 15 min. to 8 hours, the agents of the invention show anticonvulsive activity in the electroshock induced convulsion model [cf. E. A. Swinyard, J. Pharm. Assoc. Scient. Ed. 38, 201 (1949) and J. Pharmacol. Exptl. Therap. 106, 319 (1952)].
(§1) Preferred compounds for the above mentioned indications include (3-{2-[2-trans-(3,5-dichlorophenyl)-vinyl]-6-methyl-pyridin-3-yloxy}-propyl)-dimethylamine (A), 2-methyl-6-styryl-pyridine (B), 2-(3-fluoro-phenylethynyl)-6-methyl-pyridine (C) and 2-(4-ethoxy-3-trifluoromethyl-phenylethynyl)-6-methyl-pyridine (D).

FCA induced hyperalgesia = experiment: Freund complete adjuvant (FCA) induced hyperalgesia model; type: in vivo; conditions: po; post-treatment time 3 hours; read-out: reversal of the hyperalgesia ED50
Description: At doses of about 4 to about 40 mg/kg p.o., the agents of the invention show reversal of Freund complete adjuvant (FCA) induced hyperalgesia [cf. J. Donnerer et al., Neuroscience 49, 693-698 (1992) and C. J. Woolf, Neuroscience 62, 327-331 (1994)].
as §1

Structure (SMILES): Cc1ccc(OCCCN(C)C)c(/C=C/c2cc(Cl)cc(Cl)c2)n1 [A, (3-{2-[2-trans-(3,5-dichlorophenyl)-vinyl]-6-methyl-pyridin-3-yloxy}-propyl)-dimethylamine]
ED50 ([1]; pretreatment time 4 hours): 30 mg/kg

Structure (SMILES): Cc1cccc(C=Cc2ccccc2)n1 [B, 2-methyl-6-styryl-pyridine]
ED50 ([1]; pretreatment time 15 min.): 35 mg/kg

melting point: 26 to 28 °C
Structure (SMILES): Cc1cccc(C#Cc2cccc(F)c2)n1 [C, 2-(3-fluoro-phenylethynyl)-6-methyl-pyridine]
ED50 (FCA induced hyperalgesia): 4.2 mg/kg

Structure (SMILES): CCOc1ccc(C#Cc2cccc(C)n2)cc1C(F)(F)F [D, 2-(4-ethoxy-3-trifluoromethyl-phenylethynyl)-6-methyl-pyridine]
ED50 (FCA induced hyperalgesia): 19 mg/kg
